How the values were obtained:
[1] = system: strips of cavernous body isolated from mice; experiment: Relaxation of cavernous-body strips pre-contracted with phenylephrine; conditions: acetylcholine 10^-4 M (control); pre-contracted by phenylephrine 10^-5 M
Source text: FIG. 5—Effects of the toxin PnTx2-6 and of the peptide PnTx(19) (1×10^-6M) on the relaxation of strips of cavernous goodies of mice. The strips were pre-contracted with phenylefrine (10^-5 M) and relaxed with acetylcholine (10^-4M)-control, PnTx2-6 (5×10^-8M) and PnTx(19) (x10-6 M) (n=3).
Mice were sacrificed by decapitation, their penis were removed surgically and placed on a Petri dish containing Krebs Ringer bicarbonate—(NaCl, 118.1; KCl, 4.7; KH2PO4, 1.0; MgSo4, 1.0: NaHCO3, 25.0; CaCl2, 2.55; and Glucose, 11.1 mM), bubbled with a mixture of 95% O2 and 5% CO2. The gland, the spongy body and the urethra were removed and the cavernous bodies were desiccated with removal of the tunica albuginea and separated by cutting the fibrous septum between them. The strips of cavernous bodies measuring about 1×1×7 mm were mounted separately in a chamber, one end thereof being secured to an electrode and the other linked to a transducer. […]
The tissue was stretched by a passive force of 2.0 mN and stabilized for 60 minutes, the solution being replaced every 15 minutes. The changes in isometric force were recorded by using an isometric force transducer (World Precision Instruments, Inc., Sarasota, Fla., USA), connected to an amplifier (TBM-4 model; World Precision Instruments, Inc., USA), using software WinDaq Data Acquisition (Dada® Instruments, USA). […]

[2] = system: cerebrocortical synaptosomes; experiment: Synaptosomal viability (lactate dehydrogenase activity, % lysis vs Triton X-100); assay type: cell-based, rat; conditions: for lysis (LDH activity relative to Triton X-100 = 100% of lysis): 60 min incubation
Method: FIG. 3—Synaptosomal viability—verified by the activity of the enzyme lactate dehydrogenase, which oxidizes the NADH to NAD+. The latter determines a reduction in the reading (339 nm), which enables one to qualify the enzymatic activity. The reaction mixture was incubated for 60 min with PnTx(19) (10^-5 M; 3×10^-5 M; 10^-6 M; 3×10^-6 M) and the activity percentage evaluated with respect to the lysis triggered by the Triton X-100, considered=100% of lysis. The activity of this enzyme is proportional to the breakage of the synaptosomes, considering that this is an enzyme of the intracellular compartment.
Adult rats (240-300 g) were decapitated the brains were rapidly removed, immersed into homogenization solution (sucrose 0.32 M, EDTA 1 Mm and Dithiotreitol (DTT) 0.25 mM, pH=7.4) and kept in ice, then they were used in preparing the synaptosomes, as previously described by Dunkley et al 1988 (DUNKLEY, P. R.; Brain Research, 441, 59-71, 1988).
As control of the viability of the synaptosomes and also for verifying a possible lytic activity of the peptide, one carried out tests for activity of the enzyme lactate dehydrogenase, according to Kubowistz, Ott, 1943 (KUBOWISTZ, F., OTT, C. Biochem Z. 319, 94-117, 1943).

[3] = system: cerebrocortical synaptosomes of rats; experiment: Release of L-glutamate from cerebrocortical synaptosomes; assay type: cell-based, rat; conditions: 3×10^-5 M, compared with control (untreated synaptosomes), only active concentration of 10-6 to 3×10^-5 M
Method: FIG. 4—Effect of different concentrations of the PnTx(19) in releasing L-glutamate—ELISA Plate containing 300 μl/well of the synaptosome mixture (10% final volume) and NADP+(final concentration of 1 mM) in KRH with calcium (2 mM), kept at 37° C. under constant stirring was monitored. One carried out the reading of the fluorescence on the spectrofluorimeter for 2460 seconds. The enzyme GDH (35 units for the final volume of 300 μl) was added to the wells at 60 seconds; at 660 seconds, in different wells, one added different concentrations of PnTx(19) (“10^-5M, 3×10^-5 M, 10^-6 M and 3×10^-6 M”) and the KCI (33 mM). As negative controls, one used wells containing untreated synaptosomes […]. […]
The release of L-glutamate was analyzed according to the proposal of Nicholls et al. 1987 (NICHOLLS, D. et al. J. Neurochem. 49, 5057, 1987). In order to evaluate whether the peptide was capable of inducing release of L-glutamate in cerebrocortical synoptosomes of rats, just as the native toxin, one analyzed the effect thereof at the following concentrations: 10^-5M, 3×10^-5M, 10^-6M, and 2×10^-6 M, […].

[4] = system: channels for sodium Nav1.5, present in cardiomyocytes; experiment: Patch-clamp of cardiac sodium current; assay type: cell-based; conditions: PnTx-19 1 μM
Source text: FIG. 6—Effects of the peptide PnTx-19 and of the toxin PnTx2-6 in the cardiac sodium current. A—Effect of the toxin PnTx2-6 on the peak of sodium current (black arrow) and in the inactivation current (gray arrow). C—Effect of the peptide PnTx-19 on the peak of the sodium current and in the inactivation current. D—Course of time of peak in the sodium current, during the perfusion of PnTx-19 and PnTx-26. Each black circle indicates the amplitude of the Ina, measured every 1 second in a membrane potential of −20 mV. The gray bars indicate the moment when the cell was exposed to PnTx2-6 or PnTX-19 (peptide). The bar graphs summarize the effects of PnTx2-6 500 nM (n=7) and of the peptide PnTx-19 (peptide) 1 μM (n=12) in the decay constant (E) and reduction of the sodium current (F). Bars indicate average±SEM, *p<0.05 with respect to the controls.
Patch-clamp experiments were carried out with a view to analyze the effects of the toxin PnTx2-6 and of the peptide PnTx-19 on channels for sodium Nav1.5, present in cardiomyocytes.

isolated perfused heart = experiment: Isolated perfused heart: ventricular pressure, heart rate and ±dP/dt; set-up: species or system rats; conditions: peptide 37.8 nmol/L-37.8 μmol/L
Method: FIG. 7—Response dose curve of the peptide PnTx-19 and of the Toxin PnTx2-6 in the right (A) and (B) ventricular pressure, derived±dP/dt (C and D) and cardiac rate (E) of rats.
The rats were kept under a controlled cycle of 12 h light/darkness at a stable temperature with free access to water and food. They were decapitated 10 to 15 minutes after intraperitoneal injection of Heparin (200 IU). The thorax was opened, the heart was carefully desiccated and perfused through an aortic tip with Krebs-Ringer solution (KRS) containing (by mmol/L) NaCl (118.4), KCl (4.7), KH2PO4 (1.2), MgSO4.7H2O (1.2), CaCl2.2H2O (1.25), glucose (11.7) and NaHCO3 (26.5). The perfusion flow was kept constant (10 mL/min) at 37° C. and under constant oxygenation (5% CO2 and 95% O2). A balloon connected to a pressure transducer was inserted into the right ventricle, and one monitored the ventricular pressure, heart rate and derivative±dP/dt (FIG. 7). The balloon volume was adjusted to a final diastolic pressure of about 10 mm Hg. After a period for reaching the balance (30 to 40 minutes), 100 μmol/L carrier were injected (control), toxin at concentrations of 37.8 nmol/L-3.78 μmol/L or a peptide at concentrations of 37.8 nmol/L-37.8 μmol/L in perfusion buffer.
The results are the average±SEM. […]

Swiss mice = experiment: Immunogenicity after subcutaneous immunization (indirect ELISA antibody titer); assay type: in vivo; conditions: 10 μg subcutaneous, during the assays
Method: FIG. 8—Analysis of the antibody titer. A) Control: adjuvant (aluminum hydroxide). B) antibody titer after administration of the peptide PnTx-19 (10 μG) in different days.
Swiss, male, 20-23 gram mice were divided into 2 groups (Control—Adjuvant: aluminum hydroxide—FIG. 8 A and PnTx-19-10 μG—FIG. 8B), each group containing 4 animals. The mice were immunized by subcutaneous route. 21, 35 and 49 days from the first inoculation, the mice received a reinforcement of the above-mentioned preparations. To verify the presence of antibodies against the PnTx-19, the serum collected from the mouse tails was evaluated 15, 30, 40 and 60 days after the first inoculation through the indirect immunoenzymatic assay (ELISA), as described for other preparations (DEL PINO, F. A. B., BRANDELLI, A., GONZALES, J. C., HENRIQUES, J. A. P., DEWES, H., Effect of antibodies against β-N-acetylglucosaminidase on reproductive efficiency of the bovine tick Boophilus microplus. Vet. Parasitol. 79, 247-255, 1998).

[5] = Water solubility of the peptide; assay type: physicochemical; conditions: acetylated and amidated peptide
Source text: With a view to increasing the solubility of the peptide, in the present technology one has synthetized the PnTx(19) with modifications in the N-terminal portion (acetylation) and C-terminal portion (amidation).

| Compound | relaxation of cavernous-body strips [1] [%] | lysis (LDH activity relative to Triton X-100 = 100% of lysis) ([2]; 3×10^-5 M) [%] | lysis (LDH activity relative to Triton X-100 = 100% of lysis) ([2]; 3×10^-6 M) [%] | lysis (LDH activity relative to Triton X-100 = 100% of lysis) ([2]; 10^-5 M) [%] | effect on synaptosomal viability and/or exocytotic machinery ([2]; 10^-6 M to 3×10^-5 M, compared with control (absence of the peptide)) | lysis (LDH activity relative to Triton X-100 = 100% of lysis) ([2]; 10^-6 M) [%] | release of L-glutamate [3] | release of L-glutamate ([3]; listed as PnTx19) | effect on density of the sodium current [4] | effect on peak of sodium current and inactivation current [4] | effect on ventricular pressure, ±dP/dt and heart rate (isolated perfused heart) | hypersensitivity or death reactions of the animals (Swiss mice) | solubility in water [5] |
| --- | --- | --- | --- | --- | --- | --- | --- | --- | --- | --- | --- | --- | --- |
| CC(=O)OCC[N+](C)(C)C [acetylcholine] | 81.6 |  |  |  |  |  |  |  |  |  |  |  |  |
| Ac-GERRQYFWIAWYKLANSKK-NH2 [PnTx(19)] |  | 2 | 9 | 3.4 | does not affect the synaptosomal viability and/or exocytotic machinery | 6 | induced an increase in the release of glutamate | capable of inducing significant release of L-glutamate | this phenomenon was not observed | These effects were not observed | did not alter any of these parameters | No hypersensitivity or death reactions | water-soluble |

From patent US9279004B2, “Synthetic PnTx(19) peptide, pharmaceutical compositions and use” (priority 2012, dated 2016)
